{
  "source": "PubChem BioAssay (NCI)",
  "test_in_all_cases": "NCI anticancer screen, dose series, 384-well format",
  "key": {"SK-MEL-5 melanoma": {"tested_on": "SK-MEL-5 melanoma"}, "DU-145 prostate": {"tested_on": "DU-145 prostate"}, "SK-OV-3 ovarian": {"tested_on": "SK-OV-3 ovarian"}, "NCI-H522 lung": {"tested_on": "NCI-H522 lung"}, "MDA-MB-468 breast": {"tested_on": "MDA-MB-468 breast"}, "SF-295 CNS": {"tested_on": "SF-295 CNS"}, "IGROV1 ovarian": {"tested_on": "IGROV1 ovarian"}, "OVCAR-3 ovarian": {"tested_on": "OVCAR-3 ovarian"}, "HS 578T breast": {"tested_on": "HS 578T breast"}, "HOP-62 NSCLC": {"tested_on": "HOP-62 NSCLC"}, "U251 glioblastoma": {"tested_on": "U251 glioblastoma"}, "NCI-H460 NSCLC": {"tested_on": "NCI-H460 NSCLC"}, "NCI/ADR-RES ovarian": {"tested_on": "NCI/ADR-RES ovarian"}},
  "note": "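At the GI50, growth is halved. TGI: concentration producing complete growth inhibition.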",
  "data": [
    {"compound": "C=CC(=O)Nc1cc(C)ccc1Nc1nc(Nc2cc(OC)ncc2C)ncc1C(F)(F)F", "values": [
      {"measurement": "GI50", "setting": "SK-MEL-5 melanoma", "result": 147, "unit": "nM"},
      {"measurement": "TGI", "setting": "SK-MEL-5 melanoma", "result": 1970, "unit": "nM"},
      {"measurement": "GI50", "setting": "DU-145 prostate", "result": 865, "unit": "nM"},
      {"measurement": "TGI", "setting": "DU-145 prostate", "result": 3600, "unit": "nM"},
      {"measurement": "GI50", "setting": "SK-OV-3 ovarian", "result": 621, "unit": "nM"},
      {"measurement": "TGI", "setting": "SK-OV-3 ovarian", "result": 4210, "unit": "nM"},
      {"measurement": "GI50", "setting": "NCI-H522 lung", "result": 310, "unit": "nM"},
      {"measurement": "TGI", "setting": "NCI-H522 lung", "result": 1480, "unit": "nM"},
      {"measurement": "GI50", "setting": "MDA-MB-468 breast", "result": 1150, "unit": "nM"},
      {"measurement": "TGI", "setting": "MDA-MB-468 breast", "result": 2570, "unit": "nM"},
      {"measurement": "GI50", "setting": "SF-295 CNS", "result": 3610, "unit": "nM"},
      {"measurement": "TGI", "setting": "SF-295 CNS", "result": "> 100000", "unit": "nM"},
      {"measurement": "GI50", "setting": "IGROV1 ovarian", "result": 233, "unit": "nM"},
      {"measurement": "TGI", "setting": "IGROV1 ovarian", "result": 906, "unit": "nM"},
      {"measurement": "GI50", "setting": "OVCAR-3 ovarian", "result": 447, "unit": "nM"},
      {"measurement": "TGI", "setting": "OVCAR-3 ovarian", "result": 3030, "unit": "nM"},
      {"measurement": "GI50", "setting": "HS 578T breast", "result": 429, "unit": "nM"},
      {"measurement": "TGI", "setting": "HS 578T breast", "result": 1850, "unit": "nM"},
      {"measurement": "GI50", "setting": "HOP-62 NSCLC", "result": 725, "unit": "nM"},
      {"measurement": "TGI", "setting": "HOP-62 NSCLC", "result": 2620, "unit": "nM"},
      {"measurement": "GI50", "setting": "U251 glioblastoma", "result": 951, "unit": "nM"},
      {"measurement": "TGI", "setting": "U251 glioblastoma", "result": 2560, "unit": "nM"},
      {"measurement": "GI50", "setting": "NCI-H460 NSCLC", "result": 698, "unit": "nM"},
      {"measurement": "TGI", "setting": "NCI-H460 NSCLC", "result": 2720, "unit": "nM"},
      {"measurement": "GI50", "setting": "NCI/ADR-RES ovarian", "result": 1030, "unit": "nM"},
      {"measurement": "TGI", "setting": "NCI/ADR-RES ovarian", "result": 2590, "unit": "nM"}
    ]}
  ]
}
